Source: patent publication US9549560B2, “Pesticidal compositions and related methods” (DOW AGROSCIENCES LLC, priority 2013, dated 2017)

Experiments:
[1] = test system: Sweetpotato Whitefly-Crawler (Bemisia tabaci); test: Insecticidal test for Sweetpotato Whitefly-Crawler (WF) (BEMITA) in foliar spray assay on cotton plants; assay type: in vivo; conditions: 216 h, 200 ppm foliar spray, graded after 9 days, Abbott corrected % control, read-out: % Control (or Mortality) rating, WF
Method: Cotton plants (Gossypium hirsutum) grown in 3-inch pots, with 1 small (4-5 cm) true leaves, were used as test substrate. The plants were infested with 200-400 whitefly eggs 4-5 days prior to chemical application. Four pots with individual plants were used for each treatment. Test compounds (2 mg) were dissolved in 1 mL of acetone solvent, forming stock solutions of 2000 ppm test compound. The stock solutions were diluted 10× with 0.025% Tween 20 in H2O (diluents) to obtain the solution at 200 ppm test compound. A hand-held aspirator-type sprayer was used for spraying a solution to both sides of cotton leaves until runoff. Reference plants (solvent check) were sprayed with the diluent only containing 10% by volume of acetone solvent. Treated plants were held in a holding room for 9 days at approximately 25° C. and ambient relative humidity (RH) prior to grading. Evaluation was conducted by counting the number of live 3-4 nymph stage per plant under a microscope. Percent control was measured by using Abbott's correction formula (W. S. Abbott, “A Method of Computing the Effectiveness of an Insecticide,” J. Econ. Entomol. 18 (1925), pp. 265-267) as follows. Corrected % Control=100*(X−Y)/X
X=No. of live nymphs on solvent check plants and
Y=No. of live nymphs on treated plants.
(§1) Biological Data for Green Peach Aphid (GPA) (MYZUPE) and Sweetpotato Whitefly-crawler (WF) (BEMITA)” (See Table Section).

[2] = test system: Green Peach Aphid (Myzus persicae); test: Bioassay for Green Peach Aphid (GPA) (MYZUPE), foliar spray on cabbage seedlings; assay type: in vivo; conditions: 72 h, 200 ppm foliar spray, graded after three days, Abbott corrected % control, read-out: % Control (or Mortality) rating, GPA
Method: Cabbage seedlings grown in 3-inch pots, with 2-3 small (3-5 cm) true leaves, were used as test substrate. The seedlings were infested with 20-50 GPA (wingless adult and nymph stages) one day prior to chemical application. Four pots with individual seedlings were used for each treatment. Test compounds (2 mg) were dissolved in 2 mL of acetone/methanol (1:1) solvent, forming stock solutions of 1000 ppm test compound. The stock solutions were diluted 5× with 0.025% Tween 20 in H2O to obtain the solution at 200 ppm test compound. A hand-held aspirator-type sprayer was used for spraying a solution to both sides of […] leaves until runoff. Reference plants (solvent check) were sprayed with the diluent only containing 20% by volume of acetone/methanol (1:1) solvent. Treated plants were held in a holding room for three days at approximately 25° C. and ambient relative humidity (RH) prior to grading. Evaluation was conducted by counting the number of live aphids per plant under a microscope. Percent control was measured by using Abbott's correction formula (W. S. Abbott, “A Method of Computing the Effectiveness of an Insecticide,” J. Econ. Entomol. 18 (1925), pp. 265-267) as follows. Corrected % Control=100*(X−Y)/X
X=No. of live aphids on solvent check plants and
Y=No. of live aphids on treated plants
as §1

Row | SMILES | mortality at 200 ppm [1] [%] | mortality at 200 ppm [2] [%]
1 | CCN(C(=O)C(C)CSC)c1cn(-c2ccc[n+]([O-])c2)nc1Cl (centres unmarked) [Compound F10, 3-(3-Chloro-4-(N-ethyl-2-methyl-3-(methylthio)propajamido)-1H-pyrazol-1-yl)pyridine 1-oxide] | 80 to 100 | 80 to 100
2 | CCN(C(=O)CCS(=O)(=O)CC1CC1(F)F)c1cn(-c2ccc[n+]([O-])c2)nc1Cl (centres unmarked) [Compound F11] | 80 to 100 | 80 to 100
3 | CCN(C(=O)C(C)CS(C)(=O)=O)c1cn(-c2ccc[n+]([O-])c2)nc1Cl (centres unmarked) [Compound F12, 3-(3-Chloro-4-(N-ethyl-2-methyl-3-(methylsulfonyl)propanamido)-1H-pyrazol-1-yl) 1-oxide] | 80 to 100 | 80 to 100
4 | CCN(C(=O)CCS(=O)(=O)CCC(F)(F)F)c1cn(-c2ccc[n+]([O-])c2)nc1Cl [Compound F13, 3-(3-chloro-4-(N-ethyl-3-((3,3,3-trifluoropropyl)sulfonyl)propanamido)-1H-pyrazol-1-yl)pyridine 1-oxide] | 80 to 100 | 80 to 100
5 | CN(C(=O)CCSCCC(F)(F)F)c1cn(-c2ccc[n+]([O-])c2)nc1Cl [Compound P1, 3-(3-chloro-4-(N-methyl-3-((3,3,3-trifluoropropyl)thio)propanamido)-1H-pyrazol-1-yl)pyridine 1-oxide] | 80 to 100 | 80 to 100
6 | CN(C(=O)CC[S+]([O-])CCC(F)(F)F)c1cn(-c2ccc[n+]([O-])c2)nc1Cl (centres unmarked) [Compound P2, 3-(3-chloro-4-(N-methyl-3-((3,3,3-trifluoropropyl)sulfinyl)propanamido)-1H-pyrazol-1-yl)pyridine 1-oxide] | 80 to 100 | 80 to 100
7 | C#CCN(C(=O)CCSCCC(F)(F)F)c1cn(-c2ccc[n+]([O-])c2)nc1Cl [Compound P9, 3-(3-Chloro-4-(N-(prop-2-yn-1-yl)-3-((3,3,3-trifluoropropyl)thio)propanamido)-1H-pyrazol-1-yl)pyridine 1-oxide] | 80 to 100 | 80 to 100
8 | C#CCN(C(=O)CC[S+]([O-])CCC(F)(F)F)c1cn(-c2ccc[n+]([O-])c2)nc1Cl (centres unmarked) [Compound P10, 3-(3-chloro-4-(N-(prop-2-yn-1-yl)-3-((3,3,3-trifluoropropyl)sulfinyl)propanamido)-1H-pyrazol-1-yl)pyridine 1-oxide] | 80 to 100 | 80 to 100
9 | CCN(C(=O)CCSCCC(F)(F)F)c1cn(-c2ccc[n+]([O-])c2)nc1C [Compound P18, 3-(4-(N-Ethyl-3-((3,3,3-trilluoropropyl)thio)propanamido)-3-methyl-1H-pyrazol-1-yl)pyridine 1-oxide] | 80 to 100 | 80 to 100
10 | CCN(C(=O)CC[S+]([O-])CCC(F)(F)F)c1cn(-c2ccc[n+]([O-])c2)nc1C (centres unmarked) [Compound P19, 3-(4-(N-Ethyl-3-((3,3,3-trilluoropropyl)sulfinyl)propanamido)-3-methyl-1H-pyrazol-1-yl)pyridine 1-oxide] | 80 to 100 | 80 to 100
11 | CCN(C(=O)CCSCCC(F)(F)F)c1cn(-c2cc(F)c[n+]([O-])c2)nc1Cl [Compound P36, 3-(3-Chloro-4-(N-ethyl-3-((3,3,3-trilluoropropyl)thio)propanamido)-1H-pyrazol-1-yl)-5-fluoropyridine 1-oxide] | 80 to 100 | 80 to 100
12 | CCN(C(=O)CC[S+]([O-])CCC(F)(F)F)c1cn(-c2cc(F)c[n+]([O-])c2)nc1Cl (centres unmarked) [Compound P37, 3-(3-Chloro-4-(N-ethyl-3-((3,3,3-trilluoropropyl)sulfinyl)propanamido)-1H-pyrazol-1-yl)-5-fluoropyridine 1-oxide] | 80 to 100 | 80 to 100
13 | CCN(C(=O)CCSCC1CC1(F)F)c1cn(-c2ccc[n+]([O-])c2)nc1Cl (centres unmarked) [Compound P48, 3-(3-Chloro-4-(3-(((2,2-difluorocyclopropyl)methyl)thio)-N-ethylpropanamido)-1H-pyrazol-1-yl)pyridine 1-oxide] | 80 to 100 | 80 to 100
14 | CCN(C(=O)CC[S+]([O-])CC1CC1(F)F)c1cn(-c2ccc[n+]([O-])c2)nc1Cl (centres unmarked) [Compound P49, 3-(3-Chloro-4-(3-(((2,2-difluorocyclopropyl)methyl)sulfinyl)-N-ethylpropanamido)-1H-pyrazol-1-yl)pyridine 1-oxide] | 80 to 100 | 80 to 100
15 | CCN(C(=O)CCSCC(F)(F)F)c1cn(-c2ccc[n+]([O-])c2)nc1Cl [Compound P50, 3-(3-chloro-4-(N-ethyl-3-((2,2,2-trifluoroethyl)thio)propanamido)-1H-pyrazol-1-yl)pyridine 1-oxide] | 80 to 100 | 80 to 100
16 | CCN(C(=O)CCSCCCC(F)(F)F)c1cn(-c2ccc[n+]([O-])c2)nc1Cl [Compound P53, 3-(3-Chloro-4-(N-ethyl-3-((4,4,4-trifluorobutyl)thio)propanamido)-1H-pyrazol-1-yl)pyridine 1-oxide] | 80 to 100 | 80 to 100
17 | CCN(C(=O)CC[S+]([O-])CCCC(F)(F)F)c1cn(-c2ccc[n+]([O-])c2)nc1Cl (centres unmarked) [Compound P54, 3-(3-Chloro-4-(N-ethyl-3-((4,4,4-trilluorobutyl)sulfinyl)propanamido)-1H-pyrazol-1-yl)pyridine 1-oxide] | 80 to 100 | 80 to 100
18 | CN(C(=O)CCSCC1CC1(F)F)c1cn(-c2ccc[n+]([O-])c2)nc1Cl (centres unmarked) [Compound P56, 3-(3-Chloro-4-(3-(((2,2-difluorocyclopropyl)methyl)thio)-N-methylpropanamido)-1H-pyrazol-1-yl)pyridine 1-oxide] | 80 to 100 | 80 to 100
19 | CN(C(=O)CC[S+]([O-])CC1CC1(F)F)c1cn(-c2ccc[n+]([O-])c2)nc1Cl (centres unmarked) [Compound P57, 3-(3-Chloro-4-(3-(((2,2-difluorocyclopropyl)methyl)sulfinyl)-N-methylpropanamido)-1H-pyrazol-1-yl)pyridine 1-oxide] | 80 to 100 | 80 to 100
20 | CN(C(=O)CCSCCCC(F)(F)F)c1cn(-c2ccc[n+]([O-])c2)nc1Cl [Compound P62, 3-(3-Chloro-4-(N-methyl-3-((4,4,4-trifluorobutyl)thio)propanamido)-1H-pyrazol-1-yl)pyridine 1-oxide] | 80 to 100 | 80 to 100
21 | CN(C(=O)CC[S+]([O-])CCCC(F)(F)F)c1cn(-c2ccc[n+]([O-])c2)nc1Cl (centres unmarked) [Compound P63, 3-(3-Chloro-4-(N-methyl-3-((4,4,4-trifluorobutyl)sulfinyl)propanamido)-1H-pyrazol-1-yl)pyridine 1-oxide] | 80 to 100 | 80 to 100
22 | C#CCN(C(=O)CCSCC1CC1(F)F)c1cn(-c2ccc[n+]([O-])c2)nc1Cl (centres unmarked) [Compound P65, 3-(3-Chloro-4-(3-(((2,2-difluorocyclopropyl)methyl)thio)-N-(prop-2-yn-1-yl)propanamido)-1H-pyrazol-1-yl)pyridine 1-oxide] | 80 to 100 | 80 to 100
23 | C#CCN(C(=O)CC[S+]([O-])CC1CC1(F)F)c1cn(-c2ccc[n+]([O-])c2)nc1Cl (centres unmarked) [Compound P66, 3-(3-Chloro-4-(3-(((2,2-difluorocyclopropyl)methyl)sulfinyl)-N-(prop-2-yn-1-yl)propanamido)-1H-pyrazol-1-yl)pyridine 1-oxide] | 80 to 100 | 80 to 100
24 | C#CCN(C(=O)CCSCCCC(F)(F)F)c1cn(-c2ccc[n+]([O-])c2)nc1Cl [Compound P71, 3-(3-Chloro-4-(N-(prop-2-yn-1-yl)-3-((4,4,4-trifluorobutyl)thio)propanamido)-1H-pyrazol-1-yl)pyridine 1-oxide] | 80 to 100 | 80 to 100
25 | C#CCN(C(=O)CC[S+]([O-])CCCC(F)(F)F)c1cn(-c2ccc[n+]([O-])c2)nc1Cl (centres unmarked) [Compound P72, 3-(3-Chloro-4-(N-(prop-2-yn-1-yl)-3-((4,4,4-trifluorobutyl)sulfinyl)propanamido)-1H-pyrazol-1-yl)pyridine 1-oxide] | 80 to 100 | 80 to 100
